These are literature values, as cited in PMC6831561, “Pharmacological and Behavioral Effects of the Synthetic Cannabinoid AKB48 in Rats” (Frontiers in Neuroscience, 2019).

This data set relates to extracellular DA levels. Particulars: ref De Luca et al., 2015, cited from earlier work.

Where two headings read alike, the source gives them in different places.

As to `CCCCCn1cc(C(=O)c2cccc3ccccc23)c2ccccc21` [JWH-018, Naphthalen-1-yl-(1-pentylindol-3-yl)methanone], the “max increase of DA in the NAc shell” value (JWH-018 0.25 mg/kg ip, from 20 to 70 min, Miliano et al., 2016) is reported as “about 60%”. For the same molecule, the “DA release in the NAc shell” value is, setting by setting: (JWH-018 0.25 mg/kg) “increased DA release”; (JWH-018 high doses (1 and 3 mg/kg)) “no effect”; (JWH-018 lower (0.125 mg/kg) and higher (0.50 mg/kg) doses) “ineffective”.
